Measured values as given in article PMC5228619 (Cell chemical biology, 2016).
Values after ≈ are worked out from the molar mass of the structure shown. One block for each compound: values may come before it.

What was measured:
[1] = tested on: UCH MRSA 1 (dfrG); assay: MIC against clinical isolate UCH MRSA 1; format: cell-based, Staphylococcus aureus
[2] = tested on: HH MRSA 714 (dfrG); assay: MIC against clinical isolate HH MRSA 714; format: cell-based; conditions: Staphylococcus aureus
[3] = tested on: UCH MRSA 127 (dfrG); assay: MIC against clinical isolate UCH MRSA 127; format: cell-based, Staphylococcus aureus
[4] = tested on: HH MRSA 1144 (dfrA); assay: MIC against clinical isolate HH MRSA 1144; format: cell-based, Staphylococcus aureus
[5] = tested on: UCH MRSA 121 (dfrG); assay: MIC against clinical isolate UCH MRSA 121; format: cell-based, Staphylococcus aureus
[6] = tested on: UCH MSSA 1 (dfrG); assay: MIC against clinical isolate UCH MSSA 1; format: cell-based, Staphylococcus aureus
[7] = tested on: UCH MRSA 115 (dfrA); assay: MIC against clinical isolate UCH MRSA 115; format: cell-based, Staphylococcus aureus
[8] = tested on: multi-drug resistant MRSA ST398 (dfrK); conditions: dfrK in swine MRSA ST398; ref Kadlec et al. 2010; cited from earlier work
[9] = tested on: HH MRSA 1184 (dfrK); assay: MIC against clinical isolate HH MRSA 1184; format: cell-based, Staphylococcus aureus
[10] = tested on: S. aureus with dfrB point mutations; conditions: point mutations in chromosomal dfrB, ref Dale et al., 1997, cited from earlier work
[11] = tested on: ATCC 43300 (Sa43300); assay: MIC against ATCC 43300; format: cell-based, Staphylococcus aureus
[12] = tested on: TMP-resistant MRSA and MSSA clinical isolates; assay: MIC against panel of TMP-resistant clinical isolates; format: cell-based, Staphylococcus aureus
[13] = tested on: TMP-resistant MRSA and MSSA clinical isolates; assay: Clinical antibiotic susceptibility; format: cell-based, Staphylococcus aureus; conditions: all strains; CLSI breakpoint standards
[14] = Staphylococcus aureus, ATCC43300
[15] = HH MRSA 1184 (dfrK), sputum isolate
[16] = UCH MRSA 127 (dfrG), SSTI isolate
[17] = ATCC 43300, no TMP resistance gene
[18] = HH MRSA 1144 (dfrA), SSTI isolate
[19] = UCH MRSA 121 (dfrG), sputum isolate
[20] = UCH MSSA 1 (dfrG), sinus cavity isolate
[21] = UCH MRSA 115 (dfrA), SSTI isolate

SMILES: Cc1cc(NS(=O)(=O)c2ccc(N)cc2)no1 [SMX, sulfamethoxazole, reference compound]
MIC ([1]; Staphylococcus aureus, MRSA): > 500 µg/mL
MIC [2]: > 500 µg/mL
MIC ([3]; Staphylococcus aureus, MRSA): 16 µg/mL (≈ 63.2 µM)
MIC ([4]; Staphylococcus aureus, MRSA): > 500 µg/mL
MIC ([5]; Staphylococcus aureus, MRSA): > 500 µg/mL
MIC ([6]; Staphylococcus aureus, MSSA): > 500 µg/mL
MIC ([7]; Staphylococcus aureus, MRSA): 500 µg/mL (≈ 1970 µM)

SMILES: COc1cc(Cc2cnc(N)nc2N)cc(OC)c1OC [TMP, trimethoprim, reference compound]
MIC ([1]; Staphylococcus aureus, MRSA): > 1000 µg/mL
MIC [2]: > 1000 µg/mL
MIC [8]: 256 µg/mL (≈ 882 µM)
MIC ([9]; Staphylococcus aureus, MRSA): > 1000 µg/mL
MIC ([3]; Staphylococcus aureus, MRSA): > 1000 µg/mL
MIC ([10]; 1990s): 256 µg/mL (≈ 882 µM)
Increase in MIC [10]: ~ 800 fold
MIC [11, 14]: 0.312 µg/mL (≈ 1.08 µM)
MIC ([5]; Staphylococcus aureus, MRSA): > 1000 µg/mL
MIC ([6]; Staphylococcus aureus, MSSA): > 1000 µg/mL
MIC ([7]; Staphylococcus aureus, MRSA): 250 µg/mL (≈ 861 µM)

SMILES: CCc1nc(N)nc(N)c1C#C[C@@H](C)c1cc(-c2ccc(C(=O)O)cc2)ccc1OC [UCP1164]
MIC ([1]; UCH MRSA 1 (dfrG), blood isolate): 2.5 µg/mL (≈ 6 µM)
MIC [9, 15]: 0.625 µg/mL (≈ 1.5 µM)
MIC [3, 16]: 2.5 µg/mL (≈ 6 µM)
MIC [11, 17]: 0.0391 µg/mL (≈ 0.0939 µM)
MIC [4, 18]: 5 µg/mL (≈ 12 µM)
MIC [5, 19]: 5 µg/mL (≈ 12 µM)
MIC [6, 20]: 5 µg/mL (≈ 12 µM)
MIC [7, 21]: 10 µg/mL (≈ 24 µM)

SMILES: CCc1nc(N)nc(N)c1C#C[C@@H](C)c1cc(OC)cc(-c2ccc(C(=O)O)cc2)c1 [UCP1172]
MIC [9, 15]: 0.3125 µg/mL (≈ 0.75 µM)
MIC [3, 16]: 0.3125 µg/mL (≈ 0.75 µM)
MIC [11, 17]: 0.0098 µg/mL (≈ 0.0235 µM)
MIC against strains possessing dfrA ([12]; dfrA-possessing strains): does not significantly inhibit
MIC [4, 18]: 5 µg/mL (≈ 12 µM)
MIC [5, 19]: 0.625 µg/mL (≈ 1.5 µM)
MIC [7, 21]: 5 µg/mL (≈ 12 µM)

SMILES: CCc1nc(N)nc(N)c1C#CC(C)c1cc2c(c(-c3ccc(C(=O)O)cc3)c1)OCO2 (stereo not shown) [UCP1191]
MIC [9, 15]: 0.1563 µg/mL (≈ 0.363 µM)
MIC [3, 16]: 0.1563 µg/mL (≈ 0.363 µM)
MIC against strains carrying dfrG and dfrK ([12]; dfrG- and dfrK-possessing strains): 0.1563−0.625 μg/mL
MIC [4, 18]: 10 µg/mL (≈ 23.2 µM)
MIC [5, 19]: 0.625 µg/mL (≈ 1.45 µM)
MIC [6, 20]: 0.3125 µg/mL (≈ 0.726 µM)
MIC [7, 21]: 20 µg/mL (≈ 46.5 µM)

SMILES: CCc1nc(N)nc(N)c1C#C[C@@H](C)c1cc2c(c(-c3ccc(C(=O)O)cc3)c1)OCO2 [UCP1205, (S)-4-(6-(4-(2,4-diamino-6-ethylpyrimidin-5-yl)but-3-yn-2-yl)benzo[d][1,3]dioxol-4-yl)benzoic acid]
MIC ([1]; Staphylococcus aureus, MRSA): 0.625 µg/mL (≈ 1.45 µM)
MIC [2]: 0.625 µg/mL (≈ 1.45 µM)
MIC ([9]; Staphylococcus aureus, MRSA): 0.312 µg/mL (≈ 0.726 µM)
MIC ([3]; Staphylococcus aureus, MRSA): 0.312 µg/mL (≈ 0.726 µM)
MIC ([4]; Staphylococcus aureus, MRSA): > 10 µg/mL
MIC ([5]; Staphylococcus aureus, MRSA): 0.625 µg/mL (≈ 1.45 µM)
MIC ([6]; Staphylococcus aureus, MSSA): 0.312 µg/mL (≈ 0.726 µM)
MIC ([7]; Staphylococcus aureus, MRSA): > 10 µg/mL

SMILES: CCc1nc(N)nc(N)c1C#C[C@H](C)c1cc2c(c(-c3ccc(C(=O)O)cc3)c1)OCO2 [UCP1206, (R)-4-(6-(4-(2,4-diamino-6-ethylpyrimidin-5-yl)but-3-yn-2-yl)benzo[d][1,3]dioxol-4-yl)benzoic acid]
MIC ([1]; Staphylococcus aureus, MRSA): 2.5 µg/mL (≈ 5.81 µM)
MIC [2]: 2.5 µg/mL (≈ 5.81 µM)
MIC ([9]; Staphylococcus aureus, MRSA): 1.25 µg/mL (≈ 2.9 µM)
MIC ([3]; Staphylococcus aureus, MRSA): 1.25 µg/mL (≈ 2.9 µM)
MIC [11, 14]: 0.0098 µg/mL (≈ 0.0228 µM)
MIC ([4]; Staphylococcus aureus, MRSA): > 10 µg/mL
MIC ([5]; Staphylococcus aureus, MRSA): 2.5 µg/mL (≈ 5.81 µM)
MIC ([6]; Staphylococcus aureus, MSSA): 1.25 µg/mL (≈ 2.9 µM)
MIC ([7]; Staphylococcus aureus, MRSA): > 10 µg/mL

Susceptibility based on breakpoint MICs [13]: susceptible
SMILES: CCCCCCCCCC(=O)N[C@@H](Cc1c[nH]c2ccccc12)C(=O)N[C@H](CC(N)=O)C(=O)N[C@@H](CC(=O)O)C(=O)N[C@@H]1C(=O)NCC(=O)N[C@@H](CCCN)C(=O)N[C@@H](CC(=O)O)C(=O)N[C@H](C)C(=O)N[C@@H](CC(=O)O)C(=O)NCC(=O)N[C@H](CO)C(=O)N[C@@H]([C@H](C)CC(=O)O)C(=O)N[C@@H](CC(=O)c2ccccc2N)C(=O)O[C@@H]1C [daptomycin]

Susceptibility based on breakpoint MICs [13]: susceptible
SMILES: CC(=O)NC[C@H]1CN(c2ccc(N3CCOCC3)c(F)c2)C(=O)O1 [linezolid]

Susceptibility based on breakpoint MICs [13]: susceptible
SMILES: CO[C@H]1/C=C/O[C@@]2(C)Oc3c(C)c(O)c4c(O)c(c(/C=N/N5CCN(C)CC5)c(O)c4c3C2=O)NC(=O)/C(C)=C\C=C\[C@H](C)[C@H](O)[C@@H](C)[C@@H](O)[C@@H](C)[C@H](OC(C)=O)[C@@H]1C [rifampin]

SMILES: CN[C@H](CC(C)C)C(=O)N[C@H]1C(=O)N[C@@H](CC(N)=O)C(=O)N[C@H]2C(=O)N[C@H]3C(=O)N[C@H](C(=O)N[C@H](C(=O)O)c4cc(O)cc(O)c4-c4cc3ccc4O)[C@H](O)c3ccc(c(Cl)c3)Oc3cc2cc(c3O[C@@H]2O[C@H](CO)[C@@H](O)[C@H](O)[C@H]2O[C@H]2C[C@](C)(N)[C@H](O)[C@H](C)O2)Oc2ccc(cc2Cl)[C@H]1O [vancomycin]
Susceptibility based on breakpoint MICs [13]: susceptible
